The source of these data is US9421175B2, “Prevention of retinopathy by inhibition of the visual cycle” (priority 2004, dated 2016).

Each structure is given as a SMILES string.

What all share (type): in vivo, rat
The test system of data set [1] is Sprague-Dawley rats. The data set is described as follows: Resistance to retinal ischemia 1 h after intraperitoneal isotretinoin (scotopic ERG 1 week later). The note with it: isotretinoin 5 mg/kg i.p. in DMSO 1 h before 1 h ischemia (IOP 110 mmHg), 5 treated rats. On the procedure:
Purpose: To evaluate the efficacy of isotretinoin in the prevention of retinal functional loss following 1 h of ocular ischemia induced by elevation of the intraocular pressure beginning 1 h after the intraperitoneal administration of isotretinoin.
Material and methods: Of 12 Sprague-Dawley rats, 7 received intraperitoneal saline injection and 5 received intraperitoneal isotretinoin 5 mg/kg in dimethyl sulfoxide (DMSO) 1 h before intraocular pressure elevation during full anaesthesia using cannulation of the anterior chamber in one eye and infusion of balanced saline solution at a pressure of 110 mmHg. The fellow eye was not subjected to ischemia. The animals were kept in ambient room light before and during ischemia. Retinal function was assessed 1 week later by scotopic and mesopic full-field electroretinography (ERG). The study adhered to the ARVO resolution on animal welfare.

The subject of data set [2] is Sprague-Dawley rats. The data set is described as follows: Resistance to retinal ischemia 18 h after intraperitoneal isotretinoin (scotopic ERG 1 week later). As to the method:
Purpose: To evaluate the efficacy of isotretinoin in the prevention of retinal functional loss following 1 h ischemia induced by elevation of the intraocular pressure beginning 18 h after the intraperitoneal administration of isotretinoin.
Material and methods: Intraperitoneal isotretinoin 5 mg/kg in dimethyl sulfoxide (DMSO) was given to 6 Sprague-Dawley rats 18 h before intraocular pressure elevation during general anesthesia using cannulation of the anterior chamber in one eye and infusion of balanced saline solution at a pressure of 110 mmHg. The fellow eye was not subjected to ischemia. The animals were kept in ambient room light before and during ischemia. Retinal function was assessed 1 week later by scotopic and mesopic full-field electroretinography (ERG). The study adhered to the ARVO resolution on animal welfare.

Data set [3] concerns rats. The data set is described as follows: Retinal vessel diameter after intravitreal isotretinoin (digital fundus photography). The note with it: single intravitreal injection of isotretinoin 2.5 μg in 10 μl DMSO; 6 h later, dark adapted; 4 eyes; SD 4.2%; p=0.04 vs placebo. On the procedure: Purpose: To assess the effect of intravitreal isotretinoin on retinal vessel diameters in rats, the vein diameter acting as a marker of retinal flow and metabolism.
Methods: In 6 animals, one eye received a single intravitreal injection of isotretinoin 2.5 μg in 10 μl dimethyl sulfoxide (DMSO). The fellow eye received a placebo injection of 10 μl DMSO. Retinal vessel diameter was recorded 6 h later in both eyes after the rats had dark adapted using digital fundus photography in red illumination and assessed using computerized image analysis. All procedures were performed in general anesthesia and the study adhered to the ARVO resolution on animal welfare.

Data set [4] relates to rats. As to the kind of experiment: Experimental retinal vein occlusion, blood-retina barrier permeability by vitreous fluorometry. The note with it: i.p. isotretinoin 5 mg/mild in DMSO for five days before examination, 14 days after photocoagulation; 7 rats; p<0.012. On the procedure: Purpose: To assess the effect of isotretinoin on the integrity of the blood-retina barrier in experimental retinal vein occlusion. Material and methods: Occlusion of all retinal veins near the rim of the optic nerve head was induced by laser photocoagulation in 14 rats. Blood-retina barrier permeability was measured using vitreous fluorometry 2 weeks later. In 7 rats, intraperitoneal isotretinoin 5 mg/mild in dimethyl sulfoxide (DMSO) was administered for five days before the examination of vascular leakage 14 days after photocoagulation. The study adhered to the ARVO resolution on animal welfare.

On to `CC1=C(/C=C/C(C)=C/C=C/C(C)=C\C(=O)O)C(C)(C)CCC1` [isotretinoin, 13-cis-retinoic acid], for which, in data set [1], the “animals with flat ERG, of 5 eyes subjected to ischemia” value worked out at 2 animals and the “animals with intact scotopic ERG, of 5 eyes subjected to ischemia” value is reported as 3 animals. Besides, in data set [2] (isotretinoin 5 mg/kg i.p. in DMSO 18 h before 1 h ischemia (IOP 110 mmHg), ERG 1 week later, 6 treated rats), the “eyes subjected to ischemia with normal scotopic ERG amplitudes” value was found to be 6 eyes. In data set [2] (isotretinoin 5 mg/kg i.p. in DMSO 18 h before 1 h ischemia, eyes subjected to ischemia, 1 week after ischemia), the “scotopic ERG amplitudes” value is on record as 60-120 μV. The “change in retinal vein diameter” value in data set [3] is −9%. In addition, the “retinal vascular leakage compared to untreated animals” value in data set [4] is on record as “lower”.
